# Measurements taken from patent US7250397B2, “Antiarrhythmic peptides” (Zealand Pharma A/S, priority 2000, dated 2007).
# Test system: ROS 17/2.8 cells
# Experiment: Intercellular calcium wave propagation in ROS 17/2.8 cells
# Type: cell-based, rat
# Conditions: 10^−8 M, 10 minutes; 48 hours hypoxia 3-6% O2 (2.2 cells before)
# Method: ROS 17/2.8 cells: Cells were cultured in 100 mm dishes at 37° C. with 5% CO2 and medium change every 2-3 days. ROS medium (all reagents obtained from Life Technologies) MEM (Cat.No. 31095) supplemented with 10% heat-inactivated calf serum (Cat.No. 16170), 1% NEAA (Cat.No. 11140), 1% Sodium Pyruvate (Cat.No. 11360), 1% L-Glutamine (Cat.No. 25030) and 0.1% Penicillin/Streptomycin (Cat.No. 15140). For video imaging experiments, cells were plated on coverslips at 2-3×10^5 cells/coverslip and cultured for 2-3 days before use.
# The cells cultured on coverslips were loaded with 5 μM fura-2-AM (Molecular Probes, Cat.No. F-1221), for 30 minutes at 37° C., and incubated in fresh medium for 20 minutes. Coverslips were then affixed to a PDMI-2 culture chamber (Medical Systems Corp.), maintained at 37° C. with superfused CO2, on a Zeiss Axiovert microscope. Intercellular calcium waves were induced by mechanical stimulation of a single cell using a borosilicate glass micro pipette affixed to an Eppendorf 5171 micromanipulator. Imaging was performed using a MetaMorph imaging system (Universal Imaging). The excitation light (340 and 380 nm) was provided by a monochromator (T.I.L.L. Photonics GmbH). Images were acquired with an intensified CCD camera (Dage MTI) and digitized with a Matrox MVP image processing board. […]
substance,measurement,value
Ac-D-Tyr-D-Pro-D-4Hyp-Gly-D-Ala-Gly-NH2 [Compound 2],average number of cells in the calcium wave,5.4 cells
